Assay results: US20050267077A1 (priority 2004, published 2005)

Columns and labels:
rats = experiment: Object Recognition Task (episodic memory), 6 hour delay; details: for disruption of behavior: first four rats; for Recognition Score: vehicle 60%; for performance in the object recognition task: 6 h delay
Description: It is based on rodents' natural preference for exploring novel objects over familiar objects. The experimental protocol is as follows:
The experiment takes place over a total of 4 days. Objects used for testing included square 60-mL clear glass tablet bottles with a black phenolic cap (“bottle”) or […] high, 1¼-inch interior diameter aluminum electrical metal tubing conduit couplings (“conduit”). On the first 3 days, the rat was placed into a test box for 15 minutes of habituation. On the fourth day, two identical copies of the same object were arranged in the box, one in each of the near corners about ½ inch from the walls—two bottles for half of the rats, two conduits for the other half. The rat was brought to the test room, placed in the middle of the box facing the center of the back wall, and allowed to explore the objects for a 3-minute information trial, after which it was returned to its home cage and to the housing room. After a specified delay, one copy of the original object (“familiar,” not the copy already encountered) and one copy of the other object (“novel”) were arranged in the near corners, with positions counterbalanced to avoid bias, and the rat was placed back in the box for a recognition trial. […] The result of scoring is the time spent with the novel object, expressed as a %-age number (the “Recognition Score”)
Normal rats spend more time exploring the novel object, indicating memory for the sample object. Increases in the length of the delay, however, reduce the rat's ability to distinguish between the two objects in the recognition trial. For the testing of cognition-enhancing agents, a delay or inter-trial interval (ITI) is typically chosen at which complete forgetting normally occurs (i.e. where the time spent exploring both the novel and familiar object is equal), as this allows for considerable room for improvement in performance.
Both drugs were administered by intraperitoneal (IP) injection.
To generate a dose-effect curve for galantamine, various doses of this compound were administered to rats by IP injection 30 minutes prior to the information trial and compared to vehicle (0.5%-methyl cellulose)-treated controls (FIG. 7A).

[1] = cited from earlier work
Long-Evans rats = experiment: 8 hour retention test on a twelve-arm radial maze (spatial memory); format: in vivo, rat; details: 60 min prior to information session, vs vehicle (p<0.02)
Description: 12-arm maze test: Behavioral testing was conducted by an experimenter who was blind to drug treatment. 12 Long-Evans rats trained to use a win-shift strategy were given an information trial. During the information trial, 5 of the 12 arms of the 12 arm maze were blocked so that rats were not able to consume food from those blocked arms but could obtain food from each of the 7 open arms. After this session rats were moved to their home cage and placed back in the animal holding room. […] A retroactive memory error is made when the rat enters an arm that was […] on the information trial.
. Physiological saline (NaCl) was used as vehicle. […]

With `COc1ccc2c3c1O[C@H]1C[C@@H](O)C=C[C@@]31CCN(C)C2` [galantamine] the disruption of behavior (rats; galantamine 3 mg/kg IP) was “gross disruption of behavior”, the “Recognition Score” value (rats; galantamine alone 0.17 mg/kg) was 55% and the “Recognition Score” value (rats; galantamine alone 0.3 mg/kg) was 62%. For the same molecule, the half-life in humans [1] was 5 to 6 h.

In the case of `CCN(C)C(=O)Oc1cccc([C@H](C)N(C)C)c1` [rivastigmine], the disruption of behavior (rats; rivastigmine 1 mg/kg IP) is reported as “grossly disrupted behavior”, the “effect on memory in the object recognition task” value (rats; rivastigmine 0.01, 0.017, 0.03, 0.056, 0.17 and 0.3 mg/kg IP, vs vehicle) is reported as “no significant effect on memory” and the “performance in the object recognition task” value (rats; rivastigmine 0.1 IP, 30 min prior, vs vehicle (p=0.056)) is reported as “approached a significant improvement in performance”. For the same molecule, the “Recognition Score” value (rats; rivastigmine alone 0.01 mg/kg) was 55%, the “Recognition Score” value (rats; rivastigmine alone 0.017 mg/kg) was 59% and the half-life in humans [1] was “about 1.5 h”.

In the case of `CCCCP(=O)(O)CCCN` [ABPA, 3-aminopropyl-(n-butyl)-phosphinic acid], the “retention test performance on the 12-arm maze” value (Long-Evans rats; 150 mg/kg ABPA IP) is reported as “improved performance”, the “performance in the object recognition task” value (rats; ABPA 3 and 30 mg/kg IP, 30 min prior to information trial, vs saline) is reported as “no beneficial effect” and the “performance in the object recognition task” value (rats; ABPA 10, 100, 170, and 300 mg/kg IP, 30 min prior to information trial, vs saline) is reported as “significantly enhanced performance”. For the same molecule, the “Recognition Score” value (rats; ABPA alone 3 mg/kg, Example 5 rivastigmine interaction study) was 58% and the “Recognition Score” value (rats; ABPA alone 3 mg/kg, Example 6 galantamine interaction study) was 58%.

For `COc1cc2c(cc1OC)C(=O)C(CC1CCN(Cc3ccccc3)CC1)C2` (racemic) [donepezil, (±)-2,3-dihydro-5,6-dimethoxy-2-[[1-(phenylmethyl)-4-piperidinyl]methyl]-1H-inden-1-one], the “retention test performance on the 12-arm maze” value (Long-Evans rats; 3 mg/kg donepezil IP) was “improved performance”, the “performance in the object recognition task” value (rats; donepezil 1.7 mg/kg IP, 30 min prior to information trial) was “significantly improved performance” and the “adverse side effects in the rat” value (rats; donepezil doses higher than 1.7 mg/kg IP) was “began to produce adverse side effects”.
